Holding throughout (experiment): growth of human tumour cells (NCI), 48 h
Assay [1] relates to K-562 leukemia.
Assay [2] concerns HCC-2998 colon.
In assay [3] the test system is NCI-H460 lung.
The subject of assay [4] is SW-620 colon.
The test system of assay [5] is UACC-257 melanoma.
Assay [6] concerns COLO 205 colon.
Assay [7] relates to SNB-75 CNS.
For assay [8], the system named is M14 melanoma.
Assay [9] has as its system BT-549 breast.
For assay [10], the system named is MDA-N.

SMILES strings stand for the structures. “And” between values parts separate entries of the source, which are not always exact repeats. Identical values can stand only once.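 How tested: cells in 96-well plates exposed to compound for 48 hours at five concentrations. GI50 marks 50% less growth. TGI: concentration producing complete growth inhibition.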

As for `CCOC(=O)CCC1(C(=O)OC)CCCC1=O` (centres undefined), the TGI in [1], in assay [2], in [3], in [4], in assay [5] and in assay [6] was greater than 100 µM each time. Also, in [7], the TGI is greater than 100 µM.

Take `O=c1[nH]c(=O)n(C2CC(O)C(CO)O2)cc1C#Cc1ccc(C(F)(F)F)cc1` (centres undefined): the TGI in [1], in assay [2], in assay [3], in [4], in assay [5] and in [6] was greater than 100 µM in each case. For the same molecule, the TGI in assay [7] and in assay [8] was greater than 100 µM throughout.

As to `O=C1CCC2(CCC(=O)NC2=O)C(=O)N1`, the TGI in assay [1], in [2], in assay [3], in assay [4], in [5] and in [6] was greater than 100 µM each time. Moreover, the TGI in [8] was greater than 100 µM.

As to `Oc1c2cccc1Cc1cccc3c1OCCOCCOCCOCCOc1c(cccc1Cc1cccc(c1O)C3)C2`, the TGI in [9], in assay [1], in assay [2], in assay [4], in [5] and in assay [6] was greater than 100 µM in each case. Moreover, the TGI in assay [7] is 87.3 µM; in assay [8], greater than 100 µM.

Consider `COc1cc(C2SCC(=O)N2NC(=O)c2ccc(NC(C)=O)cc2)cc(OC)c1OC` (centres undefined), for which the TGI in [9], in assay [1], in assay [2], in [3], in assay [4] and in assay [5] was greater than 100 µM in each case. Besides, the TGI in assay [6], in assay [7] and in assay [8] was greater than 100 µM in each case.

Regarding `O=C1c2cc3c(cc2CC12Cc1cc4c(cc1C2)CCC4)CCC3`, the TGI in [1], in assay [2], in assay [3], in [10], in assay [4] and in assay [5] was greater than 100 µM in each case. Further, the TGI in [6], in assay [7] and in [8] was greater than 100 µM each time.

On to `CC1=NNC(N)=N/C1=C/C(Sc1ccc(Cl)cc1)c1cccs1` (centres undefined), for which the TGI was greater than 100 µM in [9]; 67.9 µM in assay [1]; 26.9 µM in assay [2]; 30.5 µM in assay [3]; 85 µM in [10]; 41.7 µM in [4]. The TGI in [5] was found to be 45.5 µM; in assay [6], 46.2 µM; in assay [8] it was 28 µM.

In the case of `COc1ccc(Cn2nc(OCc3ccccn3)c3cc([N+](=O)[O-])ccc32)cc1`, the TGI in assay [9], in [1], in assay [2], in assay [3], in assay [10] and in assay [4] was greater than 100 µM throughout. Besides, the TGI in [5] and in [8] was greater than 100 µM in each case.

With `CC1=NN(C(=O)CC(=O)Nc2cccc(Cl)c2)C(=O)C1N=Nc1ccc(S(N)(=O)=O)cc1` (centres undefined), the TGI in [2], in assay [3], in assay [4], in [5], in assay [6] and in assay [7] was greater than 100 µM in each case. Further, in assay [8], the TGI was greater than 100 µM.

In the case of `C/C(=N\N(C)C)C(CN(C)C)C(c1ccccc1)c1c(O)c2ccccc2oc1=O` (centres undefined), the TGI in [1], in assay [2], in [3], in assay [4], in assay [5] and in assay [6] was greater than 100 µM in each case. Also, the TGI in assay [7] and in assay [8] was greater than 100 µM each time.

For the molecule `CC(=O)O[C@]12CCCCCCC1C1(O)C(O)CCC[C@H]12` (some centres undefined), the TGI in assay [1], in assay [3], in [4], in assay [5], in assay [6] and in assay [7] was greater than 100 µM each time. Moreover, the TGI in [8] was greater than 100 µM.

As to `Brc1ccc(N2C[N+](c3ccc(Br)cc3)=NC(c3ccccc3)=N2)cc1`, the TGI in assay [1] is 32.8 µM and > 100 µM; in assay [2], 28.7 µM and > 100 µM; in assay [3], 29.5 µM and > 100 µM; in [4], 40.9 µM and > 100 µM; in assay [5], 31.3 µM and > 100 µM; in [6], 33.7 µM and > 100 µM. In addition, the TGI in [7] is 48.4 µM and > 100 µM; in [8] it was 26.2 µM and > 100 µM.

In the case of `O=C1C/C(=C\O)C(=O)c2ccccc2N1`, the TGI in [9], in assay [1], in assay [2], in [3], in [10] and in assay [5] was greater than 100 µM each time. Further, the TGI in assay [6] and in [8] was greater than 100 µM in each case.

Turning to `Cc1cccc(NC(=O)CC(=O)N2N=C(N3c4ccccc4Sc4ccccc43)CC2c2ccccc2)c1` (centres undefined), the TGI in assay [9], in assay [1], in [2], in assay [3], in assay [4] and in assay [5] was greater than 100 µM in each case. Further, the TGI in assay [6], in assay [7] and in [8] was greater than 100 µM throughout.

`Cc1ccc2ccccc2c1CC1S(=O)(=O)OCCOS1(=O)=O`: the TGI is 25.7 µM in [9]; 34 µM in assay [1]; 15.8 µM in assay [2]; 27.4 µM in [3]; 22.2 µM in [10]; 41.2 µM in assay [5]. For the same molecule, the results for the TGI in assay [6] and in [8] were 6.1 µM and 28.7 µM, respectively.

As to `NC1=NS(=O)(=O)N=C(N)C1=Cc1ccc([N+](=O)[O-])o1`, the TGI in assay [1] stood at 19.5 µM; in assay [2], 45.8 µM; in [3], 35.9 µM; in assay [4] it was 32.7 µM; in [5] it was 28.9 µM; in assay [6] it was 29.1 µM. For the same molecule, the TGI in assay [7] is 29.9 µM; in [8], 26.9 µM.

With `O=C1c2ccccc2NC2C(O)c3ccccc3N12` (centres undefined), the TGI in assay [9] is greater than 100 µM; in assay [1] it was greater than 100 µM; in assay [2], greater than 100 µM; in assay [3] it was 55.7 µM; in assay [4] it was greater than 100 µM; in assay [5], 37.7 µM. The TGI in assay [6], in assay [7] and in assay [8] was greater than 100 µM in each case.

On to `CC(=O)N[C@@H](Cc1ccc(O)cn1)C(=O)NCc1ccc2c(c1)OCO2`, for which the TGI in assay [9], in assay [1], in [2], in assay [3], in [10] and in assay [4] was greater than 100 µM in each case. Further, the TGI in [5], in assay [6] and in [8] was greater than 100 µM each time.

Take `Cc1cnc(Cl)nc1C(C#N)c1nc2ccccc2n1C` (centres undefined): the TGI in assay [9], in [3], in assay [10], in [4], in assay [5] and in assay [6] was greater than 100 µM throughout. The TGI in assay [7] is 69.3 µM; in assay [8], greater than 100 µM.

As for `O=c1c(Cc2ccc(Cl)cc2)nnc2sc(-c3ccc([N+](=O)[O-])cc3)nn12`, the TGI in assay [9] was 55.6 µM; in [1] it was greater than 100 µM; in assay [2], 42.6 µM; in [3] it was 44.1 µM; in assay [10], greater than 100 µM; in assay [4], 80.8 µM. In addition, the TGI in assay [5] was determined as 39.5 µM; in assay [8] it was 39.2 µM.

Regarding `c1ccc(C2=NN3CN(N2)c2ccccc2OCCCOc2ccccc23)cc1`, the TGI in assay [1], in assay [3], in [4], in assay [6], in assay [7] and in assay [8] was greater than 100 µM in each case.

As to `CCCCCCCCCCCCOC1C(COCCN2CCCC2)OC2OC(C)(C)OC21` (centres undefined), the TGI was found to be 3.22 µM in assay [9]; 2.7 µM in assay [1]; 2.76 µM in [10]; 3.14 µM in assay [5]; 3.22 µM in [6]; 3.75 µM in [7]. The TGI in assay [8] stood at 3.25 µM.

As for `O=C1CCSSCCC(=O)Nc2ccccc2N1`, the TGI in [9], in [1], in [3], in [4], in assay [5] and in assay [6] was greater than 100 µM throughout. The molecule further had a TGI in [8] greater than 100 µM.

Turning to `Cc1nc2c(n1Cc1ccc(Cl)cc1)C(=O)c1ccccc1C2=O`, the TGI in [1], in [2], in assay [3], in assay [5], in assay [6] and in assay [7] was greater than 75 µM throughout. Also, the TGI in assay [8] was greater than 75 µM.

Take `CC(C)(CN1CCCCC1)C(=O)CC(SCCS(=O)(=O)O)c1ccc(Br)cc1` (centres undefined): the TGI is 8.63 µM in [1]; 4.55 µM in [2]; 4.48 µM in [3]; 11.5 µM in assay [5]; 2.82 µM in assay [6]; 6.16 µM in assay [7]. The TGI in [8] came to 3.54 µM.

Consider `COc1cc(C(=O)Nc2nnc(S(N)(=O)=O)s2)cc(OC)c1OC`, for which the TGI in [9], in assay [1], in assay [2], in [3], in assay [10] and in assay [4] was greater than 100 µM throughout. Further, the TGI in assay [5], in assay [6] and in assay [8] was greater than 100 µM in each case.

With `CC(C)=CC(=O)O[C@@H]1CC(C)(C)CC2C3=CCC4[C@]56CC[C@](O)(OC5)C(C)(C)C6CC[C@@]4(C)C3(C)CC[C@]21C(=O)O` (some centres undefined), the TGI in assay [9], in assay [1], in assay [2], in assay [3], in assay [10] and in [4] was greater than 100 µM in each case. Besides, the TGI in assay [5] is greater than 100 µM; in assay [6], 50.4 µM; in [8] it was greater than 100 µM.

For `CNc1ccc2nc(-c3ccc(OC(=O)N(C)C)cc3)cn2c1`, the TGI in assay [9] is 31.6 µM; in assay [1], 49.7 µM; in assay [2], 81.2 µM; in assay [3], 34.4 µM; in assay [10], 38 µM; in assay [4], 51.4 µM. Also, the TGI in [5] is greater than 100 µM; in [6] it was 32.2 µM; in assay [8] it was 36.9 µM.

With `C#CC(C)(C)Oc1cc(OC)c2c(=O)c3ccccc3n(C)c2c1`, the TGI in assay [1] is 55.5 µM; in assay [2] it was greater than 100 µM; in assay [3] it was 36 µM; in assay [10], 31.1 µM; in assay [4] it was greater than 100 µM; in assay [5], 26.4 µM. In addition, the TGI in [6] came to 33.7 µM; in assay [7], 70.1 µM.

`CC1=NN(c2nc(N)nc(/C(C#N)=C/c3ccncc3)n2)C(C)(C)C1`: the TGI in assay [9] was greater than 100 µM; in [1] it was 37.9 µM; in [2] it was greater than 100 µM; in assay [3] it was greater than 100 µM; in assay [4], greater than 100 µM; in assay [5], greater than 100 µM. The TGI in [6], in assay [7] and in [8] was greater than 100 µM throughout.

Turning to `COc1cc2c3c(n(CCCNCCO)c(=O)c2cc1OC)-c1cc2c(cc1C3=O)OCO2`, the TGI in assay [9] is 7.97 µM; in [1], greater than 100 µM; in assay [2] it was 1.97 µM and 11.1 µM; in [3] it was 0.23 µM and 0.0797 µM; in assay [4] it was 2.6 µM and 2.03 µM; in [6] it was 2 µM and 5.42 µM. The TGI in [8] is 0.573 µM and 0.679 µM. Further, the GI50 was 2.16 µM and 0.511 µM in assay [1]; 0.978 µM in assay [2]; 2.3 µM in assay [10]; 0.0228 µM in assay [4]; 0.0575 µM in [8].

Regarding `Cc1ccc(S(=O)(=O)C(C#N)c2nc3ccccc3nc2-n2cccn2)cc1` (centres undefined), the TGI in assay [1], in [2], in assay [3], in [5], in [6] and in assay [7] was greater than 100 µM in each case. The TGI in [8] was greater than 100 µM.

The record behind these values is PubChem BioAssay (NCI).
